Reference: EP2952497A1, “Method for neutralizing detrimental effects of thiolbearing compounds on metal catalysts” (Universität Basel, priority 2014, dated 2015)

Legend:
[1] = screening of GSH neutralizing agents in GSH-spiked solutions before imine reduction; assay type: biochemical; details: for efficacy as GSH neutralizing agent: solutions spiked with 2.5 mmol/l GSH, incubated with agent before adding Ir-catalyst, reaction 2 days; for compatibility with the catalytic systems: solutions with or without Sav isoform, with or without 2.5 mmol/l GSH
Procedure: Michael acceptors and oxidizing agents known to react with GSH were selected to yield the corresponding thioether and disulfide, respectively. The following Michael acceptors were tested: maleinimide (Malln), 2-bromo-1-phenylethanone (BrPheOne), phenyl-vinylsulfone (PheViSul) and 3-Phenyl-2-propynenitrile (PhePropNit). The following oxidizing agents were selected: oxone (Ox), 1,4-benzoquinone (BQ), K3[Fe(CN)6] Fe^3+, and diamide (DiAm) (figure 2). For this purpose, solutions either with or without a Sav isoform were spiked with 2.5 mmol/l GSH and incubated overnight in presence of different concentrations of a particular GSH neutralizing agent before adding the Ir-catalyst. The reactions were initiated by addition of the imine substrate and run for 2 days (see Table 2).
An equimolar amount has no benefit on the reaction whereas four equivalents led to a decrease in conversion and enantioselectivity in the case of the S112K mutant. • 4) Despite the fact that H2O2 is commonly used to oxidize GSH, Ox was favoured for this purpose. […] Increasing the concentration of the GSH neutralizing agents leads to less consistent results. The outcome of the reaction depends on the Sav-mutant (if any) is used. […] A similar behaviour is observed with BrPheOne when no Sav or the S112K mutant was present.

[2] = test system: living cells, including E. coli; details: cited from earlier work
[3] = test system: [Cp*Ir(biot-p-L)Cl] c S112K Sav (streptavidin variant S112K, SEQ ID NO 2); details: 2.5 mM GSH; substrate 10 mM; purified Sav; RT, 48 h
Procedure: (§1) Initial experiments were performed using 50 µmol/l [Cp*Ir(biot-p-L)Cl], 100 µmol/l biotin binding sites (i.e. 25 µmol/l tetrameric Sav), 1 M HCO2Na in MOPS buffer ([…], pH 7) (see scheme 1). For comparison purposes, the imine reduction was performed with [Cp*Ir(biot-p-L)Cl]; [Cp*Ir(biot-p-L)Cl] c S112A Sav and [Cp*Ir(biot-p-L)Cl] c S112K Sav, cf. scheme 1.
(§2) Without wishing to be bound by theory, the inventors speculate that oxidizing GSH or derivatizing its thiol function could -at least partially- prevent inhibition of the hybrid catalysts.

[4] = test system: [Cp*Ir(biot-p-L)Cl] c S112A Sav (streptavidin variant S112A, SEQ ID NO 1); details: 2.5 mM GSH; substrate 10 mM; purified Sav; RT, 48 h
Procedure: as §1, §2

[5] = test system: [Cp*Ir(biot-p-L)Cl] c S112A Sav ATHase (streptavidin variant S112A, SEQ ID NO 1); details: substrate not given, taken as the imine (salsolidine precursor); cited from earlier work
[6] = test system: [Cp*Ir(biot-p-L)Cl] c S112K Sav ATHase (streptavidin variant S112K, SEQ ID NO 2); details: substrate not given, taken as the imine (salsolidine precursor); cited from earlier work

| Molecule | efficacy as GSH neutralizing agent [1] | compatibility with the catalytic systems [1] | also measured |
| --- | --- | --- | --- |
| N#CC#Cc1ccccc1 [PhePropNit, 3-Phenyl-2-propynenitrile] | most effective when applied at a ratio PhePropNit/GSH 2:1 |  |  |
| O=C1C=CC(=O)C=C1 [BQ, 1,4-benzoquinone] |  | not compatible with any of the three catalytic systems |  |
| CN(C)C(=O)/N=N/C(=O)N(C)C [DiAm, diamide] | most effective GSH neutralizing agents | fully compatible with the artificial metalloenzymes | compatibility with living cells [2]: causing neither lysis nor death |
| oxone | efficacy is most pronounced with four equivalents vs. GSH |  |  |
| N[C@@H](CCC(=O)N[C@@H](CS)C(=O)NCC(=O)O)C(=O)O [GSH, glutathione] |  |  | inhibition of reduction of the salsolidine precursor [3]: no activity; inhibition of reduction of the salsolidine precursor [4]: no activity |
| COc1cc2c(cc1OC)C(C)=NCC2 [salsolidine precursor, 1-methyl-6,7-dimethoxy-3,4-dihydroisoquinoline] |  |  | kcat [5]: 0.19 s⁻¹; kcat [6]: 0.0433 s⁻¹ |
| O=C1C=CC(=O)N1 [Malln, maleinimide] |  | limited compatibility |  |
| O=C(CBr)c1ccccc1 [BrPheOne, 2-bromo-1-phenylethanone] | most effective GSH neutralizing agents |  |  |
| C=CS(=O)(=O)c1ccccc1 [PheViSul, phenyl-vinylsulfone] | most effective GSH neutralizing agents | does not affect the free Ir-complex |  |
